# Test results: article PMC7862169, “Restoration of renal TIMP3 levels via genetics and pharmacological approach prevents experimental diabetic nephropathy” (Clinical and Translational Medicine, 2021)
# Tests used:
# [1] = cited from earlier work; for Kidney selectivity of carrier peptide: even with conjugated drugs
# From the text: Many proteins and peptides take on an increasingly important role as therapeutics in areas including diabetes diseases mainly due to their potential to bind to targets in a selective manner, thus reducing undesired off‐target effects. ^17 Drug‐targeting delivery to the kidney is an attractive method to increase the pharmaceutical compounds efficacy, ^18 however it represents a promising but underdeveloped area. Recently, galectin‐3 targeted G3C12 peptide and ε‐polylysine derived, synthetic (KKEEE)3K peptide have been identified as novel highly kidney‐specific carriers with exceptional kidney s ...
# [2] = target: T1, human recombinant MMP2 (Homo sapiens, UniProt P08253); assay: MMP2 colorimetric Inhibitor Screening Assay kit; assay type: biochemical; details: 1 μM peptide, 0.9 U enzyme, 37°C 60 minutes before substrate, read at 412 nm, n = 3; Figures 5A, S4E
# T1 construct: purchased Abcam
# T1 sequence (P08253 110-660): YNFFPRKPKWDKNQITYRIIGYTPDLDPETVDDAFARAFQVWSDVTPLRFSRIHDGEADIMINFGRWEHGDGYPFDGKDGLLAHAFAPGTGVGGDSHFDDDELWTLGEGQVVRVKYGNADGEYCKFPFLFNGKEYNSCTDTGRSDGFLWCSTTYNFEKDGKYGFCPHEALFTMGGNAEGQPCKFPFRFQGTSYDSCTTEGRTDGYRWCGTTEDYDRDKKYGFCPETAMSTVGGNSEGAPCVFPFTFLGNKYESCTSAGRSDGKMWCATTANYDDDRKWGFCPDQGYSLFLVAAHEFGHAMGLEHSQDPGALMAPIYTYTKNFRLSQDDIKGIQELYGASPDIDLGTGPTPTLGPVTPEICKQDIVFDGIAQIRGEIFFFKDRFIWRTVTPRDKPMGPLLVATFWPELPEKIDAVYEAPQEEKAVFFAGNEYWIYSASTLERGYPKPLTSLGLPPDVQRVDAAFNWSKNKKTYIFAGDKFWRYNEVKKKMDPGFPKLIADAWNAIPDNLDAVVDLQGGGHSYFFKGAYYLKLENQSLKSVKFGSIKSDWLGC
# Procedure: (§1) The MMP2/9 activities were evaluated using MMP2/MMP9 colorimetric Inhibitor Screening Assay kits (Abcam) under the manufacturer's instruction. In brief, 0.9 U of human recombinant MMP2 or MMP9 was mixed with 1 μM G3C12, G3C12‐NTIMP3, G3C12‐T2GNTIMP3 peptides, or 1.3 μM NNGH inhibitor as […]. The mixture was incubated at 37°C for 60 minutes then substrate was added. The plate was read at 412 nm by infinite F50 microplate reader (TECAN). Continuous recording was made at 1 minute interval for 20 minutes. The experiment was performed in triplicate.
# [3] = target: T2, human recombinant ADAM17 (Homo sapiens, UniProt P78536); assay: ADAM17 activity, SensoLyte 520 TACE Activity Assay Kit; assay type: biochemical; details: 1 μM peptide, 1 μM enzyme, QXL520/5-FAM FRET substrate, 60 minutes, n = 3; Figures 5A, S4E
# T2 construct: purchased R&D Systems
# Procedure: ADAM17 activity was determined using the SensoLyte 520 TACE Activity Assay Kit (AnaSpec). 1 μM human recombinant ADAM17 (R&D Systems) was incubated with the QXL520/ 5‐FAM FRET substrate, derived from a sequence surrounding the cleavage site of ADAM17. For inhibitor studies, 1μM TAPI‐0 or 1 μM G3C12, G3C12‐NTIMP3 and G3C12‐T2GNTIMP3 peptides were used. Active ADAM17 cleaves FRET substrate into two separate fragments resulting in an increase of 5‐FAM fluorescence which can be monitored at excitation/emission = 490 nm/520 nm measured in a fluorescence microplate reader (Beckman Coulter DTX 800) continuously every 5 minutes for 60 minutes (10).
# [4] = system: diabetic DBA/2J mice; assay: Peptide treatment of STZ diabetic mice: toxicity, behaviour, blood glucose; assay type: in vivo; details: STZ diabetic DBA/2J mice, 2 mg/kg iv, two injections per week for 8 weeks
# Procedure: Diabetes was induced in 8‐week‐old mice by a multiple low‐dose streptozotocin (STZ) (Sigma) injection. STZ was given intraperitoneally (ip) at 50 mg/kg per day (freshly made in Na‐Citrate buffer, pH 4.5) for 5 consecutive days after a 4 hours fast. Control animals were treated with Na‐citrate buffer alone. Diabetes was defined as fed blood glucose level ≥250 mg/dL using a glucometer (OneTouch Ultra, LifeScan).
# At 5 weeks after STZ or Na‐Citrate buffer administration, DBA/2J mice were randomly divided into the following four treatment groups: (1) vehicle buffer (PBS), (2) G3C12 free peptide, (3) G3C12‐NTIMP3 peptide, and (4) G3C12‐T2GNTIMP3 peptide. Peptides were dissolved in sterile PBS and administered intravenously (iv) by retro‐orbital injection (2 mg/kg body weight) in mice two times per week for 8 weeks.
# [5] = target: T3, human recombinant MMP9 (Homo sapiens, UniProt P14780); assay: MMP9 colorimetric Inhibitor Screening Assay kit; assay type: biochemical; details: 1 μM peptide, 0.9 U enzyme, 37°C 60 minutes before substrate, read at 412 nm, n = 3; Figures 5A, S4E
# T3 construct: purchased Abcam
# Procedure: as §1
# T2 sequence (P78536 215-824): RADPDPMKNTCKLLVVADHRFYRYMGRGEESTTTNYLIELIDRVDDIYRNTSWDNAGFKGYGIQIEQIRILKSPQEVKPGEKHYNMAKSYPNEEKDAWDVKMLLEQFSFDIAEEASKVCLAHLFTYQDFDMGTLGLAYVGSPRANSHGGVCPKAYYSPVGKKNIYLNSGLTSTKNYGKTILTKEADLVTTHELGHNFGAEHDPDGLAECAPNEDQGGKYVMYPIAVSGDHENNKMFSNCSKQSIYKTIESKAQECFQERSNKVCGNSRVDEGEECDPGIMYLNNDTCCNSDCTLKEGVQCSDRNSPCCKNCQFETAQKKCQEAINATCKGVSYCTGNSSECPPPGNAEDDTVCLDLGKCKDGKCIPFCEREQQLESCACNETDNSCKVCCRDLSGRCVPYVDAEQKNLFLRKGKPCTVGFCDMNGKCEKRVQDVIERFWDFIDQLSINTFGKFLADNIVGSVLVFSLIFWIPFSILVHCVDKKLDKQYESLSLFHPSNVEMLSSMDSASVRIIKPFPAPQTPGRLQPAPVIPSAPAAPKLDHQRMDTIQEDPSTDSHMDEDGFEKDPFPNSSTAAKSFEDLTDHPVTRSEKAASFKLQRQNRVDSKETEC
# T3 sequence (P14780 94-707): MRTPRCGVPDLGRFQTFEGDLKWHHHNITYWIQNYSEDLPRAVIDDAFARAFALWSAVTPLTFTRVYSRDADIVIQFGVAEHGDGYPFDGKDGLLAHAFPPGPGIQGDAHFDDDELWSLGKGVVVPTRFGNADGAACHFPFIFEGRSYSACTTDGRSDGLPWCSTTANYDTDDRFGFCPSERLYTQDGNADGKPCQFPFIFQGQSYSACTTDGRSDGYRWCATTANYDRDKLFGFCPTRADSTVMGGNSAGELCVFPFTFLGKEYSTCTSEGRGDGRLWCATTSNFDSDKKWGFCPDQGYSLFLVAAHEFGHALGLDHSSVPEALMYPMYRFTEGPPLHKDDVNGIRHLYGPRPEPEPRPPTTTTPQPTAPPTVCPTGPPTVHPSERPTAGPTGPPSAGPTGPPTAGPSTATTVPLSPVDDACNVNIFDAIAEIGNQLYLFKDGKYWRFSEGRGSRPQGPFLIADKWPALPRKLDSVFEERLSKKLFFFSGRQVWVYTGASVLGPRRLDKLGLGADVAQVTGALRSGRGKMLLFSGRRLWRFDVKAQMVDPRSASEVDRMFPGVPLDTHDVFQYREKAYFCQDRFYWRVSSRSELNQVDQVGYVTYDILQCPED
Substance,Kidney accumulation of carrier peptide [1],Toxic profile of carrier peptide [1],Kidney selectivity of carrier peptide [1],Inhibition of human MMP2 enzyme activity (percentage of residual activity) [2],Inhibition of human ADAM17 enzyme activity (percentage of residual activity) [3],Changes in behavioral or nutritional status [4],Toxic effects [4],Inhibition of human MMP9 enzyme activity (percentage of residual activity) [5]
"(KKEEE)3K [ε‐polylysine derived, synthetic kidney‐specific carrier peptide]",rapid kidney accumulation,no toxic profile,exceptional kidney selectivity,,,,,
ANTPCGPYTHDCPVKR [G3C12],rapid kidney accumulation,no toxic profile,exceptional kidney selectivity,did not show any inhibitory activity,did not show any inhibitory activity,Neither have any changes been observed,No toxic effects were observed,did not show any inhibitory activity
